# Results as given in patent publication US20240384250A1, “FIBROBLAST GROWTH FACTOR 23 MODULATING COMPOUNDS” (THE UAB RESEARCH FOUNDATION, priority 2021, published 2024).
# Entries after “also recorded” stand apart in the source; their conditions may differ.
# How the values were obtained:
# FGF23 binding to FGFR2c = target: T1, FGF23 binding to FGFR2c (Homo sapiens, UniProt P21802); experiment: Pull-down of FGF23 with Fc-FGFR on protein A/G beads with sKL, heparin or PBS; conditions: with heparin, or alone
# T1 construct: Fc-coupled FGFR ectodomains were immobilized on protein A/G beads; purchased R&D Systems 2604FG025/CF or 2629FG025/CF; 712FR050
# Procedure: (§1) To study the interaction between Fc-tagged FGFR isoforms (Fc-FGFR), FGF isoforms, and sKL, immunoprecipitation studies were conducted. Protein A beads (6501, BioVision) and protein G beads (6511, BioVision) were used at 25 μl of a 50% stock slurry per sample in a total bead volume of 50 μl. Beads were washed 5× in activity buffer (50 mM Tris [pH 7.4], 200 mM NaCl, 0.01% Tween 20). Bead spin-down assays were all performed for 2 minutes at 5000 g. Beads were resuspended in 1 ml of activity buffer in a 1.5-ml snap cap tube. One microgram of Fc-FGFR1 to 4 was incubated with the beads for 1 hour on a bead rotator. Control samples were incubated with 2 μg of anti-FGF antibody instead of Fc-FGFR. Beads were then pelleted at 5000 g for 2 minutes and washed 5× with activity buffer. Beads were resuspended and incubated with different combinations of 500 ng of FGF, 1 μg of sKL, 1.6 United States Pharmacopeia (USP) units of heparin, or phosphate-buffered saline (PBS). Beads were incubated for 1 hour on a tube rotator, and beads were pelleted and washed as before. One hundred microliters of 1× Laemmli sample buffer (1610737, Bio-Rad) with 1.42 M 2-mercaptoethanol was added, and samples were boiled for 5 minutes. Samples were analyzed using SDS-PAGE and Western blotting.
# (§2) The sample (20 μl) was loaded onto Mini-PROTEAN TGX Precast Gel 4-20% for experiments with <9 samples (4568094, Bio-Rad) or Criterion TGX Precast Gel 4-20% (5678094, Bio-Rad) for experiments with >9 samples. Gels were run in 1× Tris/Glycine/SDS buffer (1610732, Bio-Rad) at 150 V and stopped when the sample dye reached the end of the gel. Gels were removed and electrotransferred via a semi-dry cassette (1703940, Bio-Rad) in I× Tris/Glycine buffer (1610734, Bio-Rad) with 20% methanol. Gels were transferred onto polyvinylidene diflouride membranes (IPVH00010, Millipore) at 20 V for 1 hour. Membranes were then blocked in 5% dried milk with 0.5% Tween 20 diluted in Tris-buffered saline (TBST; pH 7.5) for 1 hour and probed with antibodies against specific antigens at 1:1000 in TBST with 5% dried milk. Blots were washed 3× for 5 minutes in TBST and probed with HRP-coupled secondary antibodies against specific species at 1:10,000 in TBST with 5% dried milk. Membranes were imaged on the SRX-101A X-ray film developer (Konica Minolta).
# FGF23 binding to FGFR4 = target: T2, FGF23 binding to FGFR4 (Homo sapiens, UniProt P22455+Q9GZV9); experiment: as above; conditions: with heparin, or alone
# T2 construct: Fc-coupled FGFR ectodomains were immobilized on protein A/G beads; purchased R&D Systems 2604FG025/CF or 2629FG025/CF; 685FR050
# Procedure: as §1, §2
# FGF23 binding to FGFR1c = target: T3, FGF23 binding to FGFR1c (Homo sapiens, UniProt P11362+Q9GZV9); experiment: as above; conditions: with heparin, or alone
# T3 construct: Fc-coupled FGFR ectodomains were immobilized on protein A/G beads; purchased R&D Systems 2604FG025/CF or 2629FG025/CF; 658FR050
# Procedure: as §1, §2
# FGF23 binding to FGFR3c = target: T4, FGF23 binding to FGFR3c (Homo sapiens, UniProt P22607+Q9GZV9); experiment: as above; conditions: with heparin, or alone
# T4 construct: Fc-coupled FGFR ectodomains were immobilized on protein A/G beads; purchased R&D Systems 2604FG025/CF or 2629FG025/CF; 766FR050
# Procedure: as §1, §2
# [1] = system: BALB/c mice on 0.2% adenine diet; conditions: mouse, in vivo
# Description: This diet-induced model of CKD, which develops kidney tubulointerstitial damage and cardiac hypertrophy, was constructed in accordance with previous studies.^74,75 Male and female mice were studied in separate groups on the basis of the gender-specific effect of adenine, with females taking much longer (16-20 weeks) to develop kidney injury.^76 Five-week-old BALB/c mice (The Jackson Laboratory) were put on the control diet for 1 week. After 1 week, male and female mice were each split into 4 groups, receiving control chow and saline injections, control chow and heparin injections, adenine chow and saline injections, or adenine chow and heparin injections. […]
# Short-axis heart sections were stained with H&E (IDEXX Laboratories) and used for representative images. Pictures were taken with a Leica Dmi8 fluorescence microscope. The crosssectional area of individual cardiac myocytes in paraffin-embedded short-axis sections was measured. […] Immunofluorescence images were taken with a Leica Dmi8 fluorescence microscope with a 60× oil objective. ImageJ software (National Institutes of Health) was used to quantify the cross-sectional area of 25 cells per field in 4 fields along the mid-chamber free wall on the basis of WGA-positive staining.
# T2 sequence (Q9GZV9 25-251): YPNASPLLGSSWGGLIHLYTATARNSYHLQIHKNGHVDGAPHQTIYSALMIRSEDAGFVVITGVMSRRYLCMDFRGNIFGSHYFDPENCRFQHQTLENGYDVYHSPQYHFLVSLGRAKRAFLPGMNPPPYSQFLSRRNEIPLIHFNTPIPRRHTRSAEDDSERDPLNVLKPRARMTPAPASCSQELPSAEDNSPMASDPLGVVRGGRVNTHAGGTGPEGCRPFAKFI
# T2 sequence (P22455 22-369 limits assumed): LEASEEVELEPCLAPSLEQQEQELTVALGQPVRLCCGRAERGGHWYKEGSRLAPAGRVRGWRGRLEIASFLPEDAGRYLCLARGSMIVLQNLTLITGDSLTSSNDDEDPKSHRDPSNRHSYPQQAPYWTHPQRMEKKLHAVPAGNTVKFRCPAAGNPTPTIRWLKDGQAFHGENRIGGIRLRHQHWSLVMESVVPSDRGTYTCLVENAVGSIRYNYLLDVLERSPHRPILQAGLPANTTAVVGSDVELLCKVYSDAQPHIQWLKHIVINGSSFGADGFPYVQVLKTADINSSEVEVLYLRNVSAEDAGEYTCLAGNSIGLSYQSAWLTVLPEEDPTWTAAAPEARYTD
# T3 sequence (Q9GZV9 25-251): as the sequence (Q9GZV9 25-251) above
# T3 sequence (P11362 22-376 limits assumed): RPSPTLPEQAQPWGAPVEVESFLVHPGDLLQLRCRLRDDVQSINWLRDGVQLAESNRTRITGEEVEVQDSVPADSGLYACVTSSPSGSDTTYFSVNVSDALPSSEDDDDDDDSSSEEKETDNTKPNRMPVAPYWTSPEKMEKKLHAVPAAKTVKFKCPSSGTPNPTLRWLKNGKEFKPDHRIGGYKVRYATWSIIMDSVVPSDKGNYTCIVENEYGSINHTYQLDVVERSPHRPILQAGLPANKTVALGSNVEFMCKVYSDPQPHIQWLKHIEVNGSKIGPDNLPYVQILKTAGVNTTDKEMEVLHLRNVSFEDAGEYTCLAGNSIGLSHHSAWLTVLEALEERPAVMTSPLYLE
# T4 sequence (Q9GZV9 25-251): as the sequence (Q9GZV9 25-251) above
# T4 sequence (P22607 23-375 limits assumed): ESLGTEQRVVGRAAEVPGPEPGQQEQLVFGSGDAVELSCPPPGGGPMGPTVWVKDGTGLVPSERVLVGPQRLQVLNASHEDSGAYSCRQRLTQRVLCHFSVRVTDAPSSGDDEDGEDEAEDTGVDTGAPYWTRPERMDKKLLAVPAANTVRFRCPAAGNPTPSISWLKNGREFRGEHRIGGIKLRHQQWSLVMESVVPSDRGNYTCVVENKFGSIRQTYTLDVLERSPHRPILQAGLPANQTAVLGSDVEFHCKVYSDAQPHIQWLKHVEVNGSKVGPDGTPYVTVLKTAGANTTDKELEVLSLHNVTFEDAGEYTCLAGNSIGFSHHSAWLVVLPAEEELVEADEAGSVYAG
# T1 sequence (P21802 22-377 limits assumed): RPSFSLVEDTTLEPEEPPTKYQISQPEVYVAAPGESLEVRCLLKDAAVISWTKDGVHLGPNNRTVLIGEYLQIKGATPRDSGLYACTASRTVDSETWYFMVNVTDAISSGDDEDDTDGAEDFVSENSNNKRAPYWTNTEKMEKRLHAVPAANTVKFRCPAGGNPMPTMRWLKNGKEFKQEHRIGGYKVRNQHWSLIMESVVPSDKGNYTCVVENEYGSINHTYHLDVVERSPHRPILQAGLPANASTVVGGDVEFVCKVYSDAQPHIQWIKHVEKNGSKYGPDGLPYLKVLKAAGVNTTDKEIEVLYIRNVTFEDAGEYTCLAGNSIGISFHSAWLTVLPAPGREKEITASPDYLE
substance,measurement,setting,value
heparin [reference compound],FGF23 co-precipitation with Fc-FGFR2c,FGF23 binding to FGFR2c,weaker FGF23 binding
same,FGF23 co-precipitation with Fc-FGFR4,FGF23 binding to FGFR4,efficiently coprecipitates FGF23; also recorded: increased binding of FGF23 to FGFR4
same,FGF23 co-precipitation with Fc-FGFR1c,FGF23 binding to FGFR1c,weaker FGF23 binding
same,FGF23 co-precipitation with Fc-FGFR3c,FGF23 binding to FGFR3c,weaker FGF23 binding
same,effect on the heart,[1],no effect on the heart
same,ratio of heart weight to body weight,[1],not significantly altered
